Data published in PubChem BioAssay AID1963867 (Molecular Pharmacology Branch, DTP, NCI, 2024).
pIC50: −log10 of the molar value.

Tested on: KRAS-mutant PDC tumor spheroid with HUVEC/MSC, viability
Assay: Anticancer human tumor 327498-153-R-J2-PDC patient-derived uterine carcinosarcoma cell line growth inhibition [KRAS2]
Settings: for pIC50: curve of first compound; for viability, T/C: stronger effect = lower value
How it was run: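 KRAS-mutant tumor cells were grown as spheroids with HUVEC endothelial cells and human MSCs as stroma. Targeted agents were tested alone and with KRAS pathway inhibitors. Doses started at or near clinical Cmax, or 10 microM, descending half-log.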

[1] = second compound 0.1 µM, first compound 0.000316 µM
[2] = second compound 0.1 µM, first compound 0.001 µM
[3] = second compound 0.1 µM, first compound 0.00316 µM
[4] = second compound 0.1 µM, first compound 0.01 µM
[5] = second compound 0.1 µM, first compound 0.0316 µM
[6] = second compound 0.316 µM, first compound 0.000316 µM
[7] = second compound 0.316 µM, first compound 0.001 µM
[8] = second compound 0.316 µM, first compound 0.00316 µM
[9] = second compound 0.316 µM, first compound 0.01 µM
[10] = second compound 0.316 µM, first compound 0.0316 µM
[11] = second compound 1 µM, first compound 0.000316 µM
[12] = second compound 1 µM, first compound 0.001 µM
[13] = second compound 1 µM, first compound 0.00316 µM
[14] = second compound 1 µM, first compound 0.01 µM
[15] = second compound 1 µM, first compound 0.0316 µM
[16] = second compound 3.16 µM, first compound 0.000316 µM
[17] = second compound 3.16 µM, first compound 0.001 µM
[18] = second compound 3.16 µM, first compound 0.00316 µM
[19] = second compound 3.16 µM, first compound 0.01 µM
[20] = second compound 3.16 µM, first compound 0.0316 µM
[21] = second compound 10 µM, first compound 0.000316 µM
[22] = second compound 10 µM, first compound 0.001 µM
[23] = second compound 10 µM, first compound 0.00316 µM
[24] = second compound 10 µM, first compound 0.01 µM
[25] = second compound 10 µM, first compound 0.0316 µM
[26] = second compound 0.1 µM, first compound 0.1 µM
[27] = second compound 0.316 µM, first compound 0.1 µM
[28] = second compound 1 µM, first compound 0.1 µM
[29] = second compound 3.16 µM, first compound 0.1 µM
[30] = second compound 10 µM, first compound 0.1 µM
[31] = second compound 0.1 µM, first compound 0.316 µM
[32] = second compound 0.1 µM, first compound 1 µM
[33] = second compound 0.1 µM, first compound 3.16 µM
[34] = second compound 0.1 µM, first compound 10 µM
[35] = second compound 0.316 µM, first compound 0.316 µM
[36] = second compound 0.316 µM, first compound 1 µM
[37] = second compound 0.316 µM, first compound 3.16 µM
[38] = second compound 0.316 µM, first compound 10 µM
[39] = second compound 1 µM, first compound 0.316 µM
[40] = second compound 1 µM, first compound 1 µM
[41] = second compound 1 µM, first compound 3.16 µM
[42] = second compound 1 µM, first compound 10 µM
[43] = second compound 3.16 µM, first compound 0.316 µM
[44] = second compound 3.16 µM, first compound 1 µM
[45] = second compound 3.16 µM, first compound 3.16 µM
[46] = second compound 3.16 µM, first compound 10 µM
[47] = second compound 10 µM, first compound 0.316 µM
[48] = second compound 10 µM, first compound 1 µM
[49] = second compound 10 µM, first compound 3.16 µM
[50] = second compound 10 µM, first compound 10 µM
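Also: spheroids exposed to agents for seven days before reading.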
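For viability, T/C in this document: 100% = DMSO vehicle wells so lower means fewer viable cells.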

## CC(=O)Nc1cccc(-n2c(=O)n(C3CC3)c(=O)c3c(Nc4ccc(I)cc4F)n(C)c(=O)c(C)c32)c1 + CC1OCC2(CCN(c3cnc(Sc4ccnc(N)c4Cl)c(N)n3)CC2)C1N
Second compound 0.1 µM
  pIC50: 8.78
Second compound 0.316 µM
  pIC50: 9.31
Second compound 1 µM
  pIC50: > 10.00
Second compound 3.16 µM
  pIC50: > 10.00
Second compound 10 µM
  pIC50: > 10.00
Second compound 0.1 µM, first compound 0.0001 µM
  viability, T/C: 75.2%
[1]
  viability, T/C: 58.4%
[2]
  viability, T/C: 50.2%
[3]
  viability, T/C: 46.5%
[4]
  viability, T/C: 44.7%
[5]
  viability, T/C: 26.3%
Second compound 0.316 µM, first compound 0.0001 µM
  viability, T/C: 52.7%
[6]
  viability, T/C: 52.4%
[7]
  viability, T/C: 48.2%
[8]
  viability, T/C: 40.8%
[9]
  viability, T/C: 35%
[10]
  viability, T/C: 22.8%
Second compound 1 µM, first compound 0.0001 µM
  viability, T/C: 41%
[11]
  viability, T/C: 35.2%
[12]
  viability, T/C: 34.9%
[13]
  viability, T/C: 29.7%
[14]
  viability, T/C: 26.8%
[15]
  viability, T/C: 16.1%
Second compound 3.16 µM, first compound 0.0001 µM
  viability, T/C: 31.1%
[16]
  viability, T/C: 26.9%
[17]
  viability, T/C: 22.1%
[18]
  viability, T/C: 22.1%
[19]
  viability, T/C: 17.2%
[20]
  viability, T/C: 13.1%
Second compound 10 µM, first compound 0.0001 µM
  viability, T/C: 22.8%
[21]
  viability, T/C: 21.3%
[22]
  viability, T/C: 21.6%
[23]
  viability, T/C: 15.8%
[24]
  viability, T/C: 13.9%
[25]
  viability, T/C: 11.3%

## CC(C)n1nc(-c2ccc3oc(N)nc3c2)c2c(N)ncnc21 + CC1OCC2(CCN(c3cnc(Sc4ccnc(N)c4Cl)c(N)n3)CC2)C1N
Second compound 0.1 µM
  pIC50: 8.66
Second compound 0.316 µM
  pIC50: 9.12
Second compound 1 µM
  pIC50: > 9.50
Second compound 3.16 µM
  pIC50: > 9.50
Second compound 10 µM
  pIC50: > 9.50
[1]
  viability, T/C: 70.3%
[2]
  viability, T/C: 72.7%
[3]
  viability, T/C: 38.3%
[4]
  viability, T/C: 18.5%
[5]
  viability, T/C: 8.54%
[26]
  viability, T/C: 5.56%
[6]
  viability, T/C: 61.8%
[7]
  viability, T/C: 46%
[8]
  viability, T/C: 28.2%
[9]
  viability, T/C: 14.3%
[10]
  viability, T/C: 6.36%
[27]
  viability, T/C: 4.27%
[11]
  viability, T/C: 41.2%
[12]
  viability, T/C: 32.8%
[13]
  viability, T/C: 20%
[14]
  viability, T/C: 10.4%
[15]
  viability, T/C: 6.01%
[28]
  viability, T/C: 3.72%
[16]
  viability, T/C: 31.4%
[17]
  viability, T/C: 22.6%
[18]
  viability, T/C: 13.8%
[19]
  viability, T/C: 8.15%
[20]
  viability, T/C: 4.67%
[29]
  viability, T/C: 3.18%
[21]
  viability, T/C: 22.9%
[22]
  viability, T/C: 19.6%
[23]
  viability, T/C: 11.7%
[24]
  viability, T/C: 7.42%
[25]
  viability, T/C: 4.21%
[30]
  viability, T/C: 3.29%

## COc1cc(Nc2ncc3c(n2)-c2ccc(Cl)cc2C(c2c(F)cccc2OC)=NC3)ccc1C(=O)O + CC1OCC2(CCN(c3cnc(Sc4ccnc(N)c4Cl)c(N)n3)CC2)C1N
Second compound 0.1 µM
  pIC50: > 7.50
Second compound 0.316 µM
  pIC50: > 7.50
Second compound 1 µM
  pIC50: > 7.50
Second compound 3.16 µM
  pIC50: > 7.50
Second compound 10 µM
  pIC50: > 7.50
[5]
  viability, T/C: 14.7%
[26]
  viability, T/C: 11.3%
[31]
  viability, T/C: 9.61%
[32]
  viability, T/C: 8.46%
[33]
  viability, T/C: 10.4%
[34]
  viability, T/C: 10.4%
[10]
  viability, T/C: 11.9%
[27]
  viability, T/C: 8.86%
[35]
  viability, T/C: 8.33%
[36]
  viability, T/C: 8.66%
[37]
  viability, T/C: 9.93%
[38]
  viability, T/C: 9.67%
[15]
  viability, T/C: 9.52%
[28]
  viability, T/C: 8.62%
[39]
  viability, T/C: 7.21%
[40]
  viability, T/C: 7.15%
[41]
  viability, T/C: 8.7%
[42]
  viability, T/C: 7.62%
[20]
  viability, T/C: 7.99%
[29]
  viability, T/C: 6.54%
[43]
  viability, T/C: 6%
[44]
  viability, T/C: 5.95%
[45]
  viability, T/C: 6.67%
[46]
  viability, T/C: 5.35%
[25]
  viability, T/C: 7.28%
[30]
  viability, T/C: 6.61%
[47]
  viability, T/C: 6.26%
[48]
  viability, T/C: 6.94%
[49]
  viability, T/C: 6.28%
[50]
  viability, T/C: 5.22%

## COc1cc2nccc(Oc3ccc(NC(=O)C4(C(=O)Nc5ccc(F)cc5)CC4)cc3)c2cc1OC + CC1OCC2(CCN(c3cnc(Sc4ccnc(N)c4Cl)c(N)n3)CC2)C1N
Second compound 0.1 µM
  pIC50: 5.88
Second compound 0.316 µM
  pIC50: 6.18
Second compound 1 µM
  pIC50: > 7.50
Second compound 3.16 µM
  pIC50: > 7.50
Second compound 10 µM
  pIC50: > 7.50
[5]
  viability, T/C: 70.9%
[26]
  viability, T/C: 76.3%
[31]
  viability, T/C: 61.8%
[32]
  viability, T/C: 60.5%
[33]
  viability, T/C: 21.6%
[34]
  viability, T/C: 2.02%
[10]
  viability, T/C: 53.3%
[27]
  viability, T/C: 53.5%
[35]
  viability, T/C: 46.9%
[36]
  viability, T/C: 49.5%
[37]
  viability, T/C: 20.5%
[38]
  viability, T/C: 1.95%
[15]
  viability, T/C: 38.5%
[28]
  viability, T/C: 35.9%
[39]
  viability, T/C: 32.2%
[40]
  viability, T/C: 31.9%
[41]
  viability, T/C: 10.8%
[42]
  viability, T/C: 1.02%
[20]
  viability, T/C: 29.9%
[29]
  viability, T/C: 31.5%
[43]
  viability, T/C: 23.1%
[44]
  viability, T/C: 21.3%
[45]
  viability, T/C: 14.4%
[46]
  viability, T/C: 0.53%
[25]
  viability, T/C: 24.6%
[30]
  viability, T/C: 21.9%
[47]
  viability, T/C: 23.6%
[48]
  viability, T/C: 22.1%
[49]
  viability, T/C: 9.8%
[50]
  viability, T/C: 0.48%
